Results taken from article PMC9413271, “Anti-Obesity Evaluation of Averrhoa carambola L. Leaves and Assessment of Its Polyphenols as Potential α-Glucosidase Inhibitors” (Molecules, 2022).
Entries after “also recorded” stand apart in the source; their conditions may differ.

System: α-glucosidase
Assay: In vitro α-glucosidase inhibitory assay
Assay type: biochemical
Design: key to IC50 (α-glucosidase inhibition), dash = inactive: (-) indicates inactive compounds
Settings: for α-glucosidase inhibitory activity (in words): in vitro; for IC50 (α-glucosidase inhibition), dash = inactive / IC50: sucrose substrate, 37 °C, 30 min, n = 3; for IC50: read-out: IC50 (α-glucosidase inhibition)
Description: The assay of α-glucosidase inhibitory activity of compounds was adopted from. Briefly, 100 μL of DMSO and 100 μL of α-glucosidase enzyme (5 U/mL in 0.15 M HEPES buffer) were added to 100 μL substrate (0.1 M sucrose solution dissolved into 0.15 M HEPES buffer). The mixture was vortexed for 5 sec and then incubated at 37 °C for 30 min to allow for enzymatic reaction. After incubation, the reaction was stopped by heating at 100 °C for 10 min in a block incubator. The formation of glucose was determined by means of glucose oxidase method, using a BF-5S Biosensor (Oji Scientific Instruments, Hyogo, Japan). Mathematically, α-glucosidase inhibitory activity of each sample was calculated according to this equation: (Average value of control (Ac) − average value of the sample (As))/Ac × 100.
The IC50 values were calculated from plots of log concentration of inhibitor concentration against the percentage inhibition curves, using Microsoft Excel 2016. The data were expressed as mean ± standard deviation (SD) of at least three independent experiments (n = 3).

Row | SMILES | α-glucosidase inhibitory activity (in words) | IC50 (α-glucosidase inhibition), dash = inactive | IC50 [µM]
1 | CC1OC(c2c(O)cc(OC3OC(CO)C(O)C3O)c(C(=O)CCc3ccc(O)cc3)c2O)C(O)C(O)C1OC1OC(CO)C(O)C(O)C1O (centres unmarked) [Compound 5, carambolaside M] | inactive | - | 
2 | CC1OC(OC2C(Oc3cc(O)c(C4OC(C)C(O)C(OC5OC(C)C(O)C(O)C5O)C4OC(=O)C=Cc4ccccc4)c(O)c3C(=O)CCc3ccc(O)cc3)OC(CO)C2O)C(O)C(O)C1O (centres unmarked) [Compound 7, carambolaside J] | inactive | - | 
3 | CC1OC(OC2C(Oc3cc(O)c(C4OC(C)C(O)C(O)C4OC(=O)C=Cc4ccccc4)c(O)c3C(=O)CCc3ccc(O)cc3)OC(CO)C2O)C(O)C(O)C1O (centres unmarked) [Compound 9, carambolaside I] | inactive | - | 
4 | CC1OC(OC2C(c3c(O)cc4oc(-c5ccc(O)c(O)c5)cc(=O)c4c3O)OC(C)C(O)C2O)C(O)C(O)C1O [Compound 2, luteolin 6-C-α-L-rhamnopyranosyl-(1-2)-β-D-fucopyranoside] | highest inhibitory activity among all isolated flavone glycosides; also recorded: Potent inhibition |  | 328
5 | C[C@H]1O[C@@H](Oc2cc3oc(-c4ccc(O)cc4)cc(=O)c3c(O)c2[C@H]2C[C@@H](O)[C@@H](O)[C@@H](CO)O2)[C@H](O)[C@@H](O)[C@@H]1O [Compound 1, apigenin 6-C-(2-deoxy-β-D-galactopyranoside)-7-O-β-D-quinovopyranoside] |  |  | 613
6 | CC(=O)OC1C(C)OC(c2c(O)cc(OC3OC(CO)C(O)C3OC3OC(C)C(O)C(O)C3O)c(C(=O)CCc3ccc(O)cc3)c2O)C(OC(=O)C=Cc2ccccc2)C1OC1OC(C)C(O)C(O)C1O [Compound 8, phloretin 3′-C-(2-O-(E)-cinnamoyl-3-O-β-D-fucopyranosyl-4-O-acetyl)-β-D-fucopyranosyl-6′-O-β-D fucopyranosyl-(1/2)-α-L arabinofuranoside] | inactive | - | 
7 | O=c1cc(-c2ccc(O)cc2)oc2cc(O)cc(O)c12 [Apigenin, reference compound] |  |  | 85.6 ± 0.01
8 | CC1OC(OC2C(c3c(O)cc4oc(-c5ccc(O)cc5)cc(=O)c4c3O)OC(C)C(O)C2O)C(O)C(O)C1O [Compound 4, apigenin 6-C-α-L-rhamnopyranosyl-(1-2)-β-L-fucopyranoside] | Potent inhibition |  | 390
9 | O=C(CCc1ccc(O)cc1)c1c(O)cc(O)cc1O[C@@H]1O[C@H](CO)[C@@H](O)[C@H](O)[C@H]1O [Phloridzin, phloretin-2′-glucose, reference compound] | moderate inhibitory activity |  | 853.1 ± 0.02
10 | CC1OC(OC2C(Oc3cc(O)c(C4OC(C)C(O)C(O)C4OC(=O)C=Cc4ccc(O)cc4)c(O)c3C(=O)CCc3ccc(O)cc3)OC(CO)C2O)C(O)C(O)C1O (centres unmarked) [Compound 12, carambolaside Q] | relatively strong activity; also recorded: Potent inhibition |  | 323.6 ± 0.06
11 | O=C(CCc1ccc(O)cc1)c1c(O)cc(O)cc1O [Phloretin, reference compound] |  |  | 110.4 ± 0.06
12 | O=c1cc(-c2ccc(O)cc2)oc2cc(O)c(C3OC(CO)C(O)C(O)C3O)c(O)c12 [Compound 3, apigenin 6-C-β-D-galactopyranoside] | Potent inhibition |  | 439
13 | O=c1cc(-c2ccc(O)c(O)c2)oc2cc(O)cc(O)c12 [Luteolin, reference compound] |  |  | 48.2 ± 0.02
14 | CC1OC(OC2C(Oc3cc(O)c(C4OC(C)C(O)C(O)C4O)c(O)c3C(=O)CCc3ccc(O)cc3)OC(CO)C2O)C(O)C(O)C1O (centres unmarked) [Compound 6, carambolaside Ia] | inactive | - | 
15 | CC(=O)OC1C(C)OC(c2c(O)cc(OC3OC(CO)C(O)C3OC3OC(C)C(O)C(O)C3O)c(C(=O)CCc3ccc(O)cc3)c2O)C(OC(=O)C=Cc2ccc(O)cc2)C1OC1OC(C)C(O)C(O)C1O (centres unmarked) [Compound 11, Mix of 4″-O-acetyl-carambolaside P and 4″-O-acetyl-carambolaside O] | inactive | - | 
